Source: patent US11566057B2, “Long-acting co-agonists of the glucagon and GLP-1 receptors” (Merck Sharp & Dohme Corp., priority 2017, dated 2023)
Numbered stars: 1 amine (or outer) side, 2 acyl side, 3 side chain; on linkers, the order of the positions; unused ones are H or OH. Square brackets hold non-standard residues; d marks the D form. Side chains are listed from the residue outwards. Peptide text beside a SMILES is read from it. * marks the point of attachment. C20 diacid = O=C(O)CCCCCCCCCCCCCCCCCCC(=O)*; Phe(4-CH2NH2) = NCc1ccc(C[C@H](N)C(=O)O)cc1; C18 diacid = O=C(O)CCCCCCCCCCCCCCCCC(=O)*; γGlu = O=C(O)[C@H](CCC(=O)[*:2])N[*:1]; Met(O2) = CS(=O)(=O)CC[C@H](N)C(=O)O; αMeD = C[C@](N)(CC(=O)O)C(=O)O; AEEA = NCCOCCOCC(=O)O; Aib = CC(C)(N)C(=O)O

Each compound was assayed against T1, human GCGR (Homo sapiens, UniProt P47871) (assay: cAMP activity assay at the Glucagon receptor (GCGR)). Details: ratio of GCGR EC50 to GLP1R EC50.
T1 construct: expressed in transfected cells; growth medium holds Blasticidin and Hygromycin
T1 sequence (P47871 26-477): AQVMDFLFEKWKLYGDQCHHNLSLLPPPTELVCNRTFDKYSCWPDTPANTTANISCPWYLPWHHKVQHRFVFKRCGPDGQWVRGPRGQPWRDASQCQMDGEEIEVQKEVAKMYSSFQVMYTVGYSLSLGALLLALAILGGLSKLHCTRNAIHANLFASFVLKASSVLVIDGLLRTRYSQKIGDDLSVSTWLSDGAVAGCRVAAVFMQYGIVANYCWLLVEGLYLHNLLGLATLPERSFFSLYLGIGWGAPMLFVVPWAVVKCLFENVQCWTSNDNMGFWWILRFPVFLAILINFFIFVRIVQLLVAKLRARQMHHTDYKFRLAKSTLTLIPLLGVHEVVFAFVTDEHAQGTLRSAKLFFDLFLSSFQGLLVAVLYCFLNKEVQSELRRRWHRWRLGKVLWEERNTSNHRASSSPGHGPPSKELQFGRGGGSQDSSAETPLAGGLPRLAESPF
Assay type: cell-based
Protocol: Activity of the peptides at the Glucagon receptor (GCGR) and GLP-1 receptor (GLP1R) was measured in a cAMP activity assay.
GCG/GLP-1 receptor co-agonist peptides were dissolved in 100% DMSO (dimethyl sulfoxide) and serially diluted to generate 10 point titrations. The peptide solutions were then transferred into 384-well assay plates (150 nL/well). Assay ready frozen cells expressing human GLP1R or human GCGR were suspended in growth media consisting of DMEM medium (GIBCO®), 10% FBS (GIBCO®), 1×NEAA(GIBCO®), 1×P/S (GIBCO®), 10 ug/mL Blasticidin (GIBCO®) and 200 μg/mL Hygromycin (GIBCO®). […] The cell suspensions (15 μL) were then added to the assay plates containing the peptide solutions (30,000 cells/well for human GCGR; 10,000 cells/well for human GLP1R). The cells were incubated for 1 hour at room temperature in the dark. Production of cAMP was determined using HitHunter™ cAMPXS kits (DiscoverX) following manufacturer protocol. The plates were incubated for overnight at room temperature in the dark. Luminescence was measured using an EnVision Multilabel plate reader (Perkin Elmer). Native GLP-1 and Glucagon (Bachem) are used as control peptides. EC50 values were calculated using uses a 4 parameter logistic fit based on the Levenberg-Marquardt algorithm.

SMILES	hGCGR/hGLP1R (hTone)
CC(C)C[C@H](NC(=O)[C@H](Cc1ccc(O)cc1)NC(=O)[C@H](CCCCN)NC(=O)[C@H](CO)NC(=O)[C@H](Cc1ccc(O)cc1)NC(=O)[C@H](CC(=O)O)NC(=O)[C@H](CO)NC(=O)[C@@H](NC(=O)[C@H](Cc1ccccc1)NC(=O)[C@@H](NC(=O)CNC(=O)[C@H](CCC(N)=O)NC(=O)C(C)(C)NC(=O)[C@@H](N)Cc1c[nH]cn1)[C@@H](C)O)[C@@H](C)O)C(=O)N[C@@H](CC(=O)O)C(=O)N[C@@H](C)C(=O)N[C@@H](CCCNC(=N)N)C(=O)N[C@@H](C)C(=O)N[C@@H](C)C(=O)N[C@@H](CCC(N)=O)C(=O)N[C@@H](Cc1ccc(CNC(=O)COCCOCCNC(=O)COCCOCCNC(=O)CC[C@H](NC(=O)CCCCCCCCCCCCCCCCC(=O)O)C(=O)O)cc1)C(=O)N[C@@H](Cc1ccccc1)C(=O)N[C@H](C(=O)N[C@@H](CCC(N)=O)C(=O)N[C@@H](Cc1c[nH]c2ccccc12)C(=O)N[C@@H](CC(C)C)C(=O)N[C@@H](CC(C)C)C(=O)N[C@@H](CC(=O)O)C(=O)N[C@H](C(N)=O)[C@@H](C)O)C(C)C [TP443] (H-H[Aib]QGTFTSDYSKYLDARAAQ[Phe(4-CH2NH2)]([AEEA-AEEA-γGlu-C18 diacid])FVQWLLDT-NH2)	1.8
CC(C)C[C@H](NC(=O)[C@H](Cc1ccc(O)cc1)NC(=O)[C@H](CCCCN)NC(=O)[C@H](CO)NC(=O)[C@H](Cc1ccc(O)cc1)NC(=O)[C@H](CC(=O)O)NC(=O)[C@H](CO)NC(=O)[C@@H](NC(=O)[C@H](Cc1ccccc1)NC(=O)[C@@H](NC(=O)CNC(=O)[C@H](CCC(N)=O)NC(=O)C(C)(C)NC(=O)[C@@H](N)Cc1c[nH]cn1)[C@@H](C)O)[C@@H](C)O)C(=O)N[C@@H](CC(=O)O)C(=O)N[C@@H](C)C(=O)N[C@@H](CCCNC(=N)N)C(=O)N[C@@H](C)C(=O)N[C@@H](C)C(=O)N[C@@H](CCCCNC(=O)COCCOCCNC(=O)COCCOCCNC(=O)CC[C@H](NC(=O)CCCCCCCCCCCCCCCCCCC(=O)O)C(=O)O)C(=O)N[C@@H](CC(=O)O)C(=O)N[C@@H](Cc1ccccc1)C(=O)N[C@H](C(=O)N[C@@H](CCC(N)=O)C(=O)N[C@@H](Cc1c[nH]c2ccccc12)C(=O)N[C@@H](CC(C)C)C(=O)N[C@@H](CCS(C)(=O)=O)C(=O)N[C@@](C)(CC(=O)O)C(=O)N[C@H](C(N)=O)[C@@H](C)O)C(C)C [TP565] (H-H[Aib]QGTFTSDYSKYLDARAAK([AEEA-AEEA-γGlu-C20 diacid])DFVQWL[Met(O2)][αMeD]T-NH2; N-terminus assumed)	2.4
CC(C)C[C@H](NC(=O)[C@H](Cc1c[nH]c2ccccc12)NC(=O)[C@H](CCCCNC(=O)COCCOCCNC(=O)COCCOCCNC(=O)CC[C@H](NC(=O)CCCCCCCCCCCCCCCCC(=O)O)C(=O)O)NC(=O)[C@@H](NC(=O)[C@H](Cc1ccccc1)NC(=O)[C@H](CC(=O)O)NC(=O)[C@H](CCC(N)=O)NC(=O)[C@H](C)NC(=O)[C@H](C)NC(=O)[C@H](CCCNC(=N)N)NC(=O)C(C)(C)NC(=O)[C@H](CC(=O)O)NC(=O)[C@H](CC(C)C)NC(=O)[C@H](Cc1ccc(O)cc1)NC(=O)[C@H](CCCCN)NC(=O)[C@H](CO)NC(=O)[C@H](Cc1ccc(O)cc1)NC(=O)[C@H](CC(=O)O)NC(=O)[C@H](CO)NC(=O)[C@@H](NC(=O)[C@H](Cc1ccccc1)NC(=O)[C@@H](NC(=O)CNC(=O)[C@H](CCC(N)=O)NC(=O)C(C)(C)NC(=O)[C@@H](N)Cc1c[nH]cn1)[C@@H](C)O)[C@@H](C)O)C(C)C)C(=O)N[C@@H](CCS(C)(=O)=O)C(=O)N[C@@H](CC(=O)O)C(=O)N[C@H](C(N)=O)[C@@H](C)O [TP575] (H-H[Aib]QGTFTSDYSKYLD[Aib]RAAQDFVK([AEEA-AEEA-γGlu-C18 diacid])WL[Met(O2)]DT-NH2; N-terminus assumed)	0.7
CC(C)C[C@H](NC(=O)[C@H](CC(C)C)NC(=O)[C@H](Cc1c[nH]c2ccccc12)NC(=O)[C@H](CCC(N)=O)NC(=O)[C@@H](NC(=O)[C@H](Cc1ccccc1)NC(=O)[C@H](CC(=O)O)NC(=O)[C@H](CCC(N)=O)NC(=O)[C@H](C)NC(=O)[C@H](C)NC(=O)[C@H](CCCNC(=N)N)NC(=O)C(C)(C)NC(=O)[C@H](CC(=O)O)NC(=O)[C@H](CC(C)C)NC(=O)[C@H](Cc1ccc(O)cc1)NC(=O)[C@H](CCCCN)NC(=O)[C@H](CO)NC(=O)[C@H](Cc1ccc(CNC(=O)COCCOCCNC(=O)COCCOCCNC(=O)CC[C@H](NC(=O)CCCCCCCCCCCCCCCCCCC(=O)O)C(=O)O)cc1)NC(=O)[C@H](CC(=O)O)NC(=O)[C@H](CO)NC(=O)[C@@H](NC(=O)[C@H](Cc1ccccc1)NC(=O)[C@@H](NC(=O)CNC(=O)[C@H](CCC(N)=O)NC(=O)C(C)(C)NC(=O)[C@@H](N)Cc1c[nH]cn1)[C@@H](C)O)[C@@H](C)O)C(C)C)C(=O)N[C@@H](C)C(=O)N[C@H](C(=O)N[C@@H](CCCCNC(=O)CC[C@H](N)C(=O)O)C(N)=O)[C@@H](C)O [TP581] (H-H[Aib]QGTFTSD[Phe(4-CH2NH2)]([AEEA-AEEA-γGlu-C20 diacid])SKYLD[Aib]RAAQDFVQWLLATK(γGlu)-NH2; N-terminus assumed)	2.9
CC(C)C[C@H](NC(=O)[C@H](Cc1ccc(O)cc1)NC(=O)[C@H](CCCCN)NC(=O)[C@H](CO)NC(=O)[C@H](Cc1ccc(O)cc1)NC(=O)[C@H](CC(=O)O)NC(=O)[C@H](CO)NC(=O)[C@@H](NC(=O)[C@H](Cc1ccccc1)NC(=O)[C@@H](NC(=O)CNC(=O)[C@H](CCC(N)=O)NC(=O)C(C)(C)NC(=O)[C@@H](N)Cc1c[nH]cn1)[C@@H](C)O)[C@@H](C)O)C(=O)N[C@@H](CC(=O)O)C(=O)N[C@@H](C)C(=O)N[C@@H](CCCNC(=N)N)C(=O)N[C@@H](C)C(=O)N[C@@H](C)C(=O)N[C@@H](CCC(N)=O)C(=O)N[C@@H](CC(=O)O)C(=O)N[C@@H](Cc1ccccc1)C(=O)N[C@H](C(=O)N[C@@H](Cc1ccc(CNC(=O)COCCOCCNC(=O)COCCOCCNC(=O)CC[C@H](NC(=O)CCCCCCCCCCCCCCCCC(=O)O)C(=O)O)cc1)C(=O)N[C@@H](Cc1c[nH]c2ccccc12)C(=O)N[C@@H](CC(C)C)C(=O)N[C@@H](CC(C)C)C(=O)N[C@@H](CC(=O)O)C(=O)N[C@H](C(N)=O)[C@@H](C)O)C(C)C [TP583] (H-H[Aib]QGTFTSDYSKYLDARAAQDFV[Phe(4-CH2NH2)]([AEEA-AEEA-γGlu-C18 diacid])WLLDT-NH2; N-terminus assumed)	8.6
CC(C)C[C@H](NC(=O)[C@H](Cc1ccc(O)cc1)NC(=O)[C@H](CCCCN)NC(=O)[C@H](CO)NC(=O)[C@H](Cc1ccc(O)cc1)NC(=O)[C@H](CC(=O)O)NC(=O)[C@H](CO)NC(=O)[C@@H](NC(=O)[C@H](Cc1ccccc1)NC(=O)[C@@H](NC(=O)CNC(=O)[C@H](CCC(N)=O)NC(=O)C(C)(C)NC(=O)[C@@H](N)Cc1c[nH]cn1)[C@@H](C)O)[C@@H](C)O)C(=O)N[C@@H](CC(=O)O)C(=O)N[C@@H](C)C(=O)N[C@@H](CCCNC(=N)N)C(=O)N[C@@H](C)C(=O)N[C@@H](C)C(=O)N[C@@H](CCC(N)=O)C(=O)N[C@@H](Cc1ccc(CNC(=O)COCCOCCNC(=O)COCCOCCNC(=O)CC[C@H](NC(=O)CCCCCCCCCCCCCCCCCCC(=O)O)C(=O)O)cc1)C(=O)N[C@@H](Cc1ccccc1)C(=O)N[C@H](C(=O)N[C@@H](CCC(N)=O)C(=O)N[C@@H](Cc1c[nH]c2ccccc12)C(=O)N[C@@H](CC(C)C)C(=O)N[C@@H](CC(C)C)C(=O)N[C@@H](CC(=O)O)C(=O)N[C@H](C(N)=O)[C@@H](C)O)C(C)C [TP585] (H-H[Aib]QGTFTSDYSKYLDARAAQ[Phe(4-CH2NH2)]([AEEA-AEEA-γGlu-C20 diacid])FVQWLLDT-NH2; N-terminus assumed)	2.0
